# Several values for one entry are separate records, joined by “and”; a condition that tells them apart may be missing. Equal entries are not always repeated. Structures can show the parent of a compound that is named as a salt. Where two headings read alike, the source gives them in different places.
# What was measured:
# [1] = test system: CHO-7W cells that were stably transfected with human APP (wildtype); assay: Secondary cell-based APP processing assay (sAPPalpha, sAPPbeta, Abeta 1-42); details: for Aβ1-42 peptide formation / production: cell based; for preference (selectivity) towards APP in BACE inhibition: from Aβ1-42, sAPPβ and sAPPα formation
# Text: Cellular Assays: Numerous cell-based assays can be used to evaluate the activity of agent(s) of interest on relative alpha-secretase activity to beta-secretase activity and/or processing of APP to release amyloidogenic versus non-amyloidogenic oligomers.
# Human cell lines that normally process Aβ from APP provide a useful means to assay inhibitory activities of the agent(s). Production and release of Aβ and/or other cleavage products into the culture medium can be measured, for example by immunoassay, such as Western blot or enzyme-linked immunoassay (EIA) such as by ELISA.
# Relative activity of the alpha-secretase to the beta-secretase can be measured by analysis of one or more cleavage products of the APP substrate. For example, inhibition of beta-secretase activity against the substrate APP would be expected to decrease release of specific beta-secretase induced APP cleavage products such as Aβ (e.g., Aβ40 or Aβ42), sAPPβ and APPneo. Promotion or enhancement of alpha-secretase activity against the substrate APP would be expected to increase release of specific alpha-secretase induced APP cleavage products such as sAPPα and p3 peptide.
# In such assays, for example, the cells expressing APP, alpha-secretase and/or beta-secretase are incubated in a culture medium under conditions suitable for alpha-secretase and/or beta-secretase enzymatic activity at its cleavage site on the APP substrate. On exposure of the cells to the agent(s), the amount of Aβ released into the medium and/or the amount of CTF99 fragments of APP in the cell lysates is reduced as compared with the control. The cleavage products of APP can be analyzed, for example, by immune reactions with specific antibodies, as discussed above.
# BACE1 = molecular target: T1, BACE1 (Homo sapiens, UniProt P56817); assay: in vitro BACE inhibition assay (Primary BACE1 IC50); type: biochemical
# T1 construct: purchased R&D 931-AS-050
# T1 sequence (P56817 46-457 limits assumed): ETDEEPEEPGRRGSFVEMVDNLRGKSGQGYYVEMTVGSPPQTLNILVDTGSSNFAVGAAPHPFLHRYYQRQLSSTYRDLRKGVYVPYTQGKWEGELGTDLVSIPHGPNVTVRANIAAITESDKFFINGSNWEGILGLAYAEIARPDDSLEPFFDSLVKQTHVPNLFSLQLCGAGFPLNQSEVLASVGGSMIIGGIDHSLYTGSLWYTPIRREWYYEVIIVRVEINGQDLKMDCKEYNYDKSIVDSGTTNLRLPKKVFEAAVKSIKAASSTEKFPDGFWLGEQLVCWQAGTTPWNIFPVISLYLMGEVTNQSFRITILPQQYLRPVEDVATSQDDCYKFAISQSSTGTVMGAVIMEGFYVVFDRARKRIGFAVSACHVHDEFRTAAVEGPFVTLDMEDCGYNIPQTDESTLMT
# Text: (§1) ABBI Assay: APP Binding BACE Inhibitor (ABBI) activity of any of the compounds described herein can readily be verified using, for example, assays described herein. Basically, in certain embodiments a pair the assays are utilized to identify ABBI compounds that inhibit BACE cleavage of the MBP-C125 APP substrate, resulting in the inhibition of the production of C99 and the β-site peptide substrate (P5-P5′) and also interacts with APP, for example, as measured by surface plasmon resonance (SPR) analysis. In one illustrative embodiment, an MBP-C125 APP695 wt fusion protein can be used as one of the substrates and the second substrate can be the commercially available P5-P5′ fluorescence substrate.
# solubility (Sol) = type: physicochemical; details: Table 3; in words
# [2] = pharmacokinetics, brain level (Cmax brain); type: in vivo
# Text: As is readily apparent, not all compounds were equally able to cross the blood brain barrier, but most compounds did reach pharmacologically meaningful levels given their low IC50 values. FIG. 5A provides a further exemplary compound (FAH65) and FIG. 5B depicts dose response data for Aβ1-42 production in a cell based system. Further shown are effects observed with regard to Aβ1-42 production, sAPPβ and sAPPα formation. […] Here, data are presented for oral and subcutaneous administration (SQ) at dosages of 10- and 30 mg/kg. […] Once more, it should be noted that these exemplary compounds are preferential towards APP in BACE inhibition as can be taken from the data for Aβ1-42, sAPPβ, and sAPPα formation.
# [3] = PAMPA parallel artificial membrane permeability assay; type: in vitro ADME; details: Table 4
# APP = molecular target: T2, APP (Homo sapiens, UniProt P05067); assay: APP binding (APP Kd), surface plasmon resonance
# T2 construct: made in house
# T2 sequence (P05067 230-624 isoform P05067-4): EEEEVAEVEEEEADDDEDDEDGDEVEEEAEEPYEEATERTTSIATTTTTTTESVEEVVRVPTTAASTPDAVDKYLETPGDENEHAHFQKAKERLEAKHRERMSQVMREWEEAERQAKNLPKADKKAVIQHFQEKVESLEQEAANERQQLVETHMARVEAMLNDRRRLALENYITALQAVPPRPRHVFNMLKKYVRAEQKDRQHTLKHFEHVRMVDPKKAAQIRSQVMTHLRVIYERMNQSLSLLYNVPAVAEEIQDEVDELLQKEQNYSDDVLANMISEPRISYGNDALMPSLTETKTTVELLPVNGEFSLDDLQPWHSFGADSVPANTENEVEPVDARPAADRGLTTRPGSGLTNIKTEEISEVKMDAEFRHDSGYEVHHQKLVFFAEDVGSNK
# Text: as §1, with “substrate. […]” for “substrate.”
# [4] = Table 4, several values in a cell = several determinations, read-out: BACE1 IC50
# [5] = Tables 1 and 2, read-out: Primary BACE1 IC50
# [6] = Table 2, one cell for the whole line
IC50 (BACE1; [4]),IC50 (BACE1; [5]),SMILES,other results
,,Cc1cc(C2(c3cc(-c4cccnc4)ccn3)N=C(N)N(C)C2=O)ccc1OC(F)F (stereo not shown) [FAH-65],Aβ1-42 peptide formation / production ([1]; in words): strongly reduces; preference (selectivity) towards APP in BACE inhibition ([1]; in words): clear preference towards APP
6460 nM,,Cc1cc(C)cc(C2(c3cc(F)cc(F)c3)N=C(N)N(C)C2=O)c1 (stereo not shown) [FAH-05],
2230 nM and 3500 nM,,CN1C(=O)C(c2cc(F)cc(F)c2)(c2cccc(OC(F)F)c2)N=C1N (stereo not shown) [FAH-04],
1500 nM and 750 nM,1500 nM,Cc1cc(C2(C3CCCCC3)N=C(N)N(C)C2=O)ccc1OC(F)F (stereo not shown) [FAH-59],"Toxicity in secondary cell assay [1, 6]: Toxic"
14900 nM,,CCCC1CC(C2(c3ccc(OC(F)F)c(C)c3)N=C(N)N(C)C2=O)CCN1 (stereo not shown) [FAH-81],
70 nM and 50 nM,70 nM,Cc1cc(C2(c3cccc(-c4cccnc4)c3)N=C(N)N(C)C2=O)ccc1OC(F)F (stereo not shown) [FAH-32],"sAPPα formation ([1]; in words, FIG. 1D): increased sAPPα formation as compared to FAH17; sAPPβ formation ([1]; in words, FIG. 1D): reduced as compared to FAH17; Aβ1-42 peptide formation / production ([1]; in words): substantially reduced; preference (selectivity) towards APP in BACE inhibition ([1]; in words): higher selectivity of FAH32 towards APP; Sol (solubility (Sol)): Sol: good; IC50 (BACE1; Table 3, read-out: IC50): ~60 nM; Cmax brain ([2]; 10 mg/kg 5Q): <0.02 µM"
1400 nM,1400 nM,Cc1cc(C2(c3ccc(OC(F)F)c(C)c3)N=C(N)N(C)C2=O)ccn1 (stereo not shown) [FAH-47],
,2000 nM,Cc1cc(C2(c3cnn(C)c3)N=C(N)N(C)C2=O)ccc1OC(F)F (stereo not shown) [30 HCl],
960 nM,,Cc1cc(C2(c3cc(F)c(F)c(F)c3)N=C(N)N(C)C2=O)ccc1OC(F)F (stereo not shown) [FAH-19],
2000 nM,,CN1C(=O)C(c2cc(F)cc(F)c2)(c2ccnc(F)c2)N=C1N (stereo not shown) [FAH-15],
1500 nM,,CN1C(=O)C(c2cc(F)cc(F)c2)(c2ccc(F)c(F)c2)N=C1N (stereo not shown) [FAH-14],
2000 nM,,Cc1cc(C2(c3cnn(C)c3)N=C(N)N(C)C2=O)ccc1OC(F)F (stereo not shown) [FAH-30],
,5300 nM,Cc1cc(C2(c3cncc(F)c3)N=C(N)N(C)C2=O)ccc1OC(F)F (stereo not shown) [FAH-37],"Sol (solubility (Sol)): good; IC50 (BACE1; Table 3, read-out: IC50): ~5300 nM; reducing BACE activity in vitro (BACE1; in words, FIG. 2B): less effective; Cmax brain ([2]; (IP), no unit in the cell, neighbours μM): ~0.11 (IP)"
2130 nM and 9200 nM,,CN1C(=O)C(c2ccc(OC(F)F)cc2)(c2cc(F)cc(F)c2)N=C1N (stereo not shown) [FAH-02],
10 nM,,CN1C(=O)C(c2ccc(OC(F)F)cc2)(c2cccc(-c3cncnc3)c2)N=C1N (stereo not shown) [FAH-74],"IC50 (BACE1; in vitro BACE inhibition assay, FIG. 8, read-out: IC50): 9 nM"
11000 nM,,Cc1cc(C2(c3cccc(C(C)C)c3)N=C(N)N(C)C2=O)ccc1OC(F)F (stereo not shown) [FAH-29],
870 nM,,Cc1cc(C2(c3cccc(-c4ccccc4)c3)N=C(N)N(C)C2=O)ccc1OC(F)F (stereo not shown) [FAH-73],
1400 nM,,COc1ccc(C2(c3cc(C)c(F)cc3F)N=C(N)N(C)C2=O)cc1C (stereo not shown) [FAH-09],
2600 nM,,COc1ccc(C2(c3cc(F)cc(F)c3)N=C(N)N(C)C2=O)cc1F (stereo not shown) [FAH-12],
1180 nM,,CNCCc1cccc(C2(c3ccc(OC(F)F)c(C)c3)N=C(N)N(C)C2=O)c1 (stereo not shown) [FAH-63],PAMPA [3]: 0.36

IC50 (BACE1; [4]),IC50 (BACE1; [5]),SMILES,other results
130 nM,130 nM,Cc1cccc(C2(c3ccc(OC(F)F)c(C)c3)N=C(N)N(C)C2=O)c1 (stereo not shown) [FAH-27],
2670 nM and 4700 nM,,CN1C(=O)C(c2ccccc2)(c2cc(F)cc(F)c2)N=C1N (stereo not shown) [FAH-01],
2300 nM,,COc1ccc(C2(c3ccc(F)cc3F)N=C(N)N(C)C2=O)cc1C (stereo not shown) [FAH-08],
320 nM,320 nM,Cc1cc(C2(c3cccc(Cl)c3)N=C(N)N(C)C2=O)ccc1OC(F)F (stereo not shown) [FAH-23],
1900 nM,2000 nM,COCc1cc(C2(c3ccc(OC(F)F)c(C)c3)N=C(N)N(C)C2=O)ccn1 (stereo not shown) [FAH-53],
570 nM,570 nM,Cc1cc(C2(c3cc(F)cc(Cl)c3)N=C(N)N(C)C2=O)ccc1OC(F)F (stereo not shown) [FAH-25],
600 nM and 4100 nM,,COc1ccc(C2(c3cc(F)cc(F)c3)N=C(N)N(C)C2=O)cc1C (stereo not shown) [FAH-06],
1670 nM,,CCCc1cc(C2(c3ccc(OC(F)F)c(C)c3)N=C(N)N(C)C2=O)ccn1 (stereo not shown) [FAH-80],
370 nM,600 nM,CNCc1cccc(C2(c3ccc(OC(F)F)c(C)c3)N=C(N)N(C)C2=O)c1 (stereo not shown) [FAH-62],"Sol (solubility (Sol)): excellent; IC50 (BACE1; Table 3, read-out: IC50): ~60 nM"
2300 nM and 2700 nM,,Cc1cc(C2(c3cccc(F)c3)N=C(N)N(Cc3ccccc3)C2=O)ccc1OC(F)F (stereo not shown) [FAH-42],
4800 nM,4800 nM,COc1cc(C2(c3ccc(OC(F)F)c(C)c3)N=C(N)N(C)C2=O)ccn1 (stereo not shown) [FAH-48],
1800 nM,,COc1ccc(C2(c3cc(F)cc(F)c3)N=C(N)N(C)C2=O)cn1 (stereo not shown) [FAH-11],
1600 nM,1200 nM,Cc1cc(C2(c3ccnc(F)c3)N=C(N)N(C)C2=O)ccc1OC(F)F (stereo not shown) [FAH-46],"Sol (solubility (Sol)): good; IC50 (BACE1; Table 3, read-out: IC50): ~1200 nM; Cmax brain ([2]; 10 mg/kg 5Q): ~0.3 µM; Cmax brain ([2]; 30 mg/kg): 1.3 μM @ 30 mL"
1600 nM,,Cc1cc(C2(c3cc(F)cc(F)c3)N=C(N)N(C)C2=O)ccc1F (stereo not shown) [FAH-10],
2730 nM,,Cc1cc(C2(c3ccncc3)N=C(N)N(C)C2=O)ccc1OC(F)F (stereo not shown) [FAH-78],
380 nM,380 nM,Cc1cc(C2(c3cccc(C(F)(F)F)c3)N=C(N)N(C)C2=O)ccc1OC(F)F (stereo not shown) [FAH-28],
240 nM,,CC#Cc1cc(C2(c3ccc(OC(F)F)c(C)c3)N=C(N)N(C)C2=O)ccn1 (stereo not shown) [FAH-57],
17600 nM,,Cc1cc(C2(C3CCNCC3)N=C(N)N(C)C2=O)ccc1OC(F)F (stereo not shown) [FAH-79],
15300 nM,> 10000 nM,Cc1cc(C2(c3cocn3)N=C(N)N(C)C2=O)ccc1OC(F)F (stereo not shown) [FAH-38],"Secondary (sAPPalpha, sAPPbeta, sAPP(α/β), Abeta 1-42, sAPPa/Aβ) [1, 6]: unchanged"
,,Cc1cc(F)cc(C2(c3ccc(OC(F)F)c(C)c3)N=C(N)N(C)C2=O)c1 (stereo not shown) [FAH-22],"sAPPbeta ([1]; Secondary (1st test, n = 3), ↓ = decrease): ↓>20%"

SMILES,IC50 (BACE1; [4]),IC50 (BACE1; [5]),other results
Cc1cc(C2(c3cncnc3)N=C(N)N(C)C2=O)ccc1OC(F)F (stereo not shown) [FAH-33],10000 nM,10000 nM,
Cc1cc(C2(c3cccc(F)c3)N=C(N)N(C)C2=O)ccc1OC(F)F (stereo not shown) [FAH-17],,150 nM,"Sol (solubility (Sol)): med; IC50 (BACE1; Table 3, read-out: IC50): ~100 nM; Cmax brain ([2]; 10 mg/kg 5Q): ~0.3 µM"
COCc1cccc(C2(c3ccc(OC(F)F)c(C)c3)N=C(N)N(C)C2=O)c1 (stereo not shown) [FAH-44],300 nM and 50 nM,300 nM,"sAPPalpha ([1]; Secondary (1st test, n = 3), ↑ = increase): ↑>10%; Sol (solubility (Sol)): med; IC50 (BACE1; Table 3, read-out: IC50): ~25 nM; Cmax brain ([2]; 10 mg/kg 5Q): ~0.2 µM"
Cc1cc(C2(c3cc(F)cc(F)c3)N=C(N)N(C)C2=O)ccc1OC(F)F (stereo not shown) [FAH-03],,530 nM,Kd (APP): ~300 nM

# Source: patent US20190077766A1, “Compositions For APP-Selective BACE Inhibition And Uses Therefor” (NantNeuro, LLC, priority 2015, published 2019)
